# Test results reported in patent publication US10328022B2, “Formulations and methods for vaginal delivery of antiprogestins” (REPROS THERAPEUTICS INC., priority 2012, dated 2019).
# Experiments:
# [1] = test system: New Zealand White rabbits; assay: Cumulative vaginal mucous membrane irritancy, 10 daily intravaginal doses; assay type: in vivo, rabbit
# Method: Pullulan capsules (Capsugel NPcaps®, size 0) comprising CDB-4124 were administered once daily for 10 consecutive days intravaginally to 10 healthy virgin female New Zealand White rabbits in order to determine the cumulative vaginal mucous membrane irritancy potential and to obtain plasma samples for pharmacokinetic analysis. Five rabbits were assigned to each of two groups, the first dosed with vehicle control (pullulan capsules with 0.5 ml PEG 1000 fill) introduced into the upper vaginal vault of each rabbit using a syringe applicator (Group 1), the second with CDB-4124 (pullulan capsules with 12 mg CDB-4124 in 0.5 ml PEG 1000)(Group 2). The external vaginal mucosa of each animal was examined for erythema, edema and discharge prior to the initial dose, immediately prior to each treatment and prior to sacrifice. All animals were examined for gross pathology.
# [2] = Pharmacokinetics of vaginal pullulan capsules with 12 mg CDB-4124 in women; assay type: in vivo, human
# Method: (§1) Capsugel NPcaps® were filled with the excipient fill formulations described above with 12 mg CDB-4124 (telapristone acetate) and administered vaginally to human females with uterine fibroids once per day for a period of 2 weeks to determine the length of time required to reach steady state and overall systemic exposure of the parent compound (CDB-4124) and the primary metabolite (CDB-4453). The capsules were administered using a commercially available vaginal applicator modified by reversing the insert (see FIG. 5). The unmodified applicator comprises a barrel and plunger with the barrel having a relatively wide opening on one end and a relatively narrow opening on the other end. The applicator is designed such that the drug is placed in the end with the larger diameter opening (entrance end), the applicator is inserted into the vagina and the plunger is used to push the drug out the barrel and into the vagina. For insertion of the filled NPcaps, the shell end of the capsule (having a […] diameter) was placed into the narrow opening in the barrel, leaving the cap exposed. […] Pharmacokinetic data was then obtained from patients.
# [3] = test system: human females with uterine fibroids; assay: Vaginal administration of pullulan capsules with 12 mg CDB-4124: menses and fibroid symptoms; assay type: in vivo
# Method: as §1
# (§2) In a previous oral study, doses of 1, 3, 6, 9 and 12 mg of CDB-4124 were administered for a period of 10 weeks. […] Cessation of menses directly correlates to efficacy of an oral dose in both uterine fibroids and endometriosis. […] Given the overall low exposure of the 12 mg dose, in those women that continued to menstruate, further improvements in reduction of symptoms are expected with longer exposure to the drug. In efficacy studies in which CDB-4124 was administered orally, women experienced a nearly 50% reduction in mean fibroid size at a 25 mg dose. When those women were then escalated to a 50 mg oral dose for an additional four months, fibroid size was reduced to approximately 25% of the initial volume. Based on the assessment of fibroid symptoms as scored by UFSQOL, women on oral CDB-4124 were, in general, symptom free.
# [4] = test system: human females with uterine fibroids; assay: Previous oral study of CDB-4124, 1, 3, 6, 9 and 12 mg for 10 weeks; assay type: in vivo
# Method: as §2
# uterine fibroids = assay: Oral efficacy studies of CDB-4124, 25 mg then 50 mg; assay type: in vivo, human
# Method: as §2
# [5] = 12 mg intravaginally once daily for 10 days
# [6] = 12 mg vaginal, pair-wise comparison of 6 women
smiles,measurement,setting,value
"COCC(=O)[C@@]1(OC(C)=O)CC[C@H]2[C@@H]3CCC4=CC(=O)CCC4=C3[C@@H](c3ccc(N(C)C)cc3)C[C@@]21C [CDB-4124, 21-methoxy-17α-acetoxy-11β-(4 N,N-dimethylaminophenyl)-19-norpregna-4,9-diene-3,20-dione]","External vaginal mucosa: erythema, edema",[1]; 12 mg CDB-4124 in pullulan capsule intravaginally once daily for 10 days,⅖ rabbits showed very slight erythema and/or edema on 4 occasions
same,"Gross findings in ovaries, uterus, three sections of the vagina",[1]; [5],No gross findings
same,Histopathological findings,[1]; [5],nor were any histopathological findings observed
same,Irritation index,[1]; [5],none
same,Drug peak after steady state,"[2]; 12 mg vaginal once per day, women",no obvious drug peak
same,"Systemic exposure relative to an equivalent oral dose, based on AUC","[2]; 12 mg vaginal versus 12 mg oral, women",about ⅙
same,Cmax compared with oral doses,"[2]; 12 mg vaginal versus 1, 3, 6, 9, 12 mg oral, women",lower than any of the oral doses
same,Release profile from pullulan capsules,"[2]; 12 mg vaginal, steady state, 24 hour period, women",continuous release of active agents at a substantially constant rate
same,Exposure compared with the 1 mg oral dose,"[2]; 12 mg vaginal, women",only a fraction of the exposure of the ineffective 1 mg oral dose
same,Maximum exposure relative to the 50 mg oral dose,"[2]; 12 mg vaginal, women",1/100
same,Time to steady state concentration,"[2]; women with uterine fibroids, 12 mg vaginal pullulan capsule once per day",one
same,"Cessation of menses, number of women","[3]; 12 mg vaginal once per day, 6 women",3 women
same,Fibroid related condition,"[3]; 12 mg vaginal, after only 4 weeks of treatment",significant improvements
same,"Reduction in menstrual bleeding, Pictorial Blood Loss Assessment Chart (PBAC)",[3]; [6],Statistical significance (p<0.05)
same,"Reduction in overall uterine fibroid symptoms, Uterine Fibroid Symptom Quality of Life Survey (UFSQOL)",[3]; [6],Statistical significance (p<0.05)
same,Efficacy of the 1 mg oral dose,[4]; oral 1 mg,ineffective
same,Tolerability,"[4]; oral 1, 3, 6, 9 and 12 mg for 10 weeks",all doses were well tolerated
same,Lowest dose inducing reliable cessation of menses,"[4]; oral, 10 weeks",3 mg
same,Fibroid size as share of the initial volume,uterine fibroids; escalated to 50 mg oral dose for an additional four months,approximately 25%
same,Reduction in mean fibroid size,uterine fibroids; oral 25 mg dose,~50%
same,Fibroid symptoms as scored by UFSQOL,uterine fibroids; oral CDB-4124,symptom free
